Data taken from US7462227B2 (E.I. du Pont de Nemours and Company, priority 2005, dated 2008).
“Also recorded” adds a separate entry of the source.

Assays:
[1] = Solubility
Experimental: In general, solubility of the complex is determined by visual observation, and a complex is considered to be solbilized when a sufficient amount of the complex is dissolved in the solution to permit a desired amount of the complex to be adsorbed on and/or absorbed in the cellulosic material when the treatment thereof occurs.

[2] = tested on: termites; settings: Connick et al 2001; cited from earlier work

CC(C)Cc1ccc(C(C)C(=O)O)cc1 (centres unmarked) [ibuprofen]
solubility in methanol and ethanol [1]: soluble
solubility in water [1]: relatively insoluble; also recorded: only slightly soluble
toxicity to termites [2]: toxic

CC(C)Cc1ccc(C(C)C(=O)[O-])cc1.[Na+] (centres unmarked) [sodium ibuprofenate]
solubility in methanol and ethanol [1]: soluble
solubility in water [1]: relatively insoluble
